Experiment: solubility in the mobile phase (isopropanol)
Type: physicochemical
Details: organic solvent or mixture; crude material; isopropanol as the mobile phase
Description: Racemic zopiclone was subjected to preparative chromatography using Chiralcel® OD as the stationery phase and isopropanol as the mobile phase. Under these conditions the crude material has a good solubility in the mobile phase (>1.0 g/liter) and the typical retention time for the R-isomer is 12.3 minutes and for the S-isomer is 17.8 minutes. Some physico-chemical properties of the S-zopiclone obtained are set out in table 1.

With CN1CCN(C(=O)OC2c3nccnc3C(=O)N2c2ccc(Cl)cn2)CC1 (racemic) [Racemic zopiclone, (±) of 6-(5-chloro-2-pyridinyl)-6,7-dihydro-7-oxo-5H-pyrrolo-[3,4b]-pyrazin-5-yl-4-methylpiperazine-1-caboxylate] the solubility was greater than 1000 µg/mL.

Source: patent US20080182848A1, “Novel Process” (priority 2005, published 2008)
